Assay results reported in PubChem BioAssay (NCI).
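Tested at 5 concentrations; 48 h exposure; 96-well plates; endpoints linearly interpolated, else capped at highest concentration. GI50 = concentration required for 50% inhibition of growth. The concentration for full growth arrest is given as TGI.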

Key:
Assay in all cases: NCI tumour cell line growth inhibition, 48 h
SN12C renal = system: SN12C renal
OVCAR-4 ovarian = system: OVCAR-4 ovarian
K-562 leukemia = system: K-562 leukemia
LOX IMVI melanoma = system: LOX IMVI melanoma
HT29 colon = system: HT29 colon
MOLT-4 leukemia = system: MOLT-4 leukemia
EKVX NSCLC = system: EKVX NSCLC
MDA-MB-435 = system: MDA-MB-435
RPMI-8226 leukemia = system: RPMI-8226 leukemia
NCI-H522 lung = system: NCI-H522 lung

| SMILES | GI50 (SN12C renal) [µM] | TGI (SN12C renal) [µM] | GI50 (OVCAR-4 ovarian) [µM] | TGI (OVCAR-4 ovarian) [µM] | GI50 (K-562 leukemia) [µM] | TGI (K-562 leukemia) [µM] | GI50 (LOX IMVI melanoma) [µM] | TGI (LOX IMVI melanoma) [µM] | GI50 (HT29 colon) [µM] | TGI (HT29 colon) [µM] | GI50 (MOLT-4 leukemia) [µM] | TGI (MOLT-4 leukemia) [µM] | GI50 (EKVX NSCLC) [µM] | TGI (EKVX NSCLC) [µM] | TGI (MDA-MB-435) [µM] | TGI (RPMI-8226 leukemia) [µM] | TGI (NCI-H522 lung) [µM] | GI50 (RPMI-8226 leukemia) [µM] | GI50 (NCI-H522 lung) [µM] | GI50 (MDA-MB-435) [µM] |
| --- | --- | --- | --- | --- | --- | --- | --- | --- | --- | --- | --- | --- | --- | --- | --- | --- | --- | --- | --- | --- |
| O=C(O)C1(Cc2cccc(Nc3nccs3)n2)CCC(Oc2cccc(Cl)c2F)CC1 (stereo not given) | 11.4 | 46.6 | 25.8 | > 100 | 0.468 | > 56.5 | 7.62 | 22.5 | 7.56 | 24.2 | 15.7 | 63.8 | 13.6 | 47.4 |  |  |  |  |  |  |
| CC/C(C)=C1\OC(=O)C(C)C(O)C(Cc2cccnc2)NC(=O)C(NC(=O)c2ncccc2O)C(C)OC1=O (stereo not given) |  | > 100 |  | > 100 |  | > 100 |  | > 100 |  | > 100 |  | > 100 |  | > 100 | > 100 | > 100 |  |  |  |  |
| CC(C)(C)C(=O)O[C@@H]1COC2C(O)COC21 (stereo not given in full) |  | > 100 |  | > 100 |  | > 100 |  | > 100 |  | > 100 |  | 49 |  |  |  |  | > 100 |  |  |  |
| N#CC1(C=O)c2ccccc2C=CN1C(=O)c1ccccc1 (stereo not given) |  | > 100 |  | > 100 |  | 91.6 |  |  |  | > 100 |  | 44.9 |  | > 100 |  |  | > 100 |  |  |  |
| CC(=O)[O-].O=C([CH-]C(=O)c1ccccc1)c1ccccc1.O=C([CH-]C(=O)c1ccccc1)c1ccccc1.[Y+3] | 6.23 | 38 | 5.73 | 77.3 | 3.45 | > 100 | 4.95 | 23.4 | 7.69 | 20.7 | 2.91 | 32.3 | 3.59 | 17.8 |  | 33 | 6.06 | 4.47 | 1.58 |  |
| COc1ccc(/C(=N/NC(N)=O)C(c2ccc(OC)cc2)C2C(=O)Oc3ccccc32)cc1 (stereo not given) |  | > 100 |  | > 100 |  | > 100 |  | > 100 |  | > 100 |  | > 100 |  |  |  | > 100 | > 100 |  |  |  |
| COc1cc([C@@H]2c3cc4c(cc3[C@@H](NC(=O)c3cccc(F)c3)C3COC(=O)[C@@H]32)OCO4)cc(OC)c1O (stereo not given in full) |  | 2.73 |  | > 100 |  | > 100 |  | 15.1 |  | 15.4 |  | 1.06 |  | 7.49 |  | 5.85 | 3.97 |  |  |  |
| CN(C)c1ccc(/C=N\N2C(=O)c3ccccc3C2=O)cc1 |  | > 100 |  | > 100 |  | > 100 |  | > 100 |  | > 100 |  | > 100 |  | > 100 |  | > 100 |  |  |  |  |
| Nc1c(C(=O)Nc2ccccc2F)sc2nc3c(cc12)C(=O)CCC3 | > 65.3 | > 100 | > 21 | > 100 | 0.553 | > 100 | 8.58 | > 100 | 0.531 | > 100 | > 100 | > 100 |  | > 100 | 0.661 |  | 3.9 |  | 0.476 | 0.216 |
| COc1ccc(-c2ccc(/C=N/n3c(C)nn(CN4CCN(C)CC4)c3=S)o2)c([N+](=O)[O-])c1 | > 100 | > 100 | 7.91 | 35.7 | 16.2 | 42.4 |  |  | 28 | > 100 | 20.5 | 61.3 | > 100 | > 100 | 31 | 64.6 | > 100 | 20.6 | 65 | 14.2 |
